Test results as given in PMC9386018, “A lymphatic-absorbed multi-targeted kinase inhibitor for myelofibrosis therapy” (Nature Communications, 2022).
Where “and” joins values, the source holds several entries; their conditions need not be identical. Identical values can stand only once.

Key:
[1] = Pharmacokinetic analysis of plasma after intravenous and oral dosing
Procedure: Samples were centrifuged at 15,000 rpm for 10 min, then blood plasma was collected from the upper layer and frozen at −80 °C until analysis. […] Sample processing, chromatographic separation, MS, and MS/MS parameters used for analysis were determined by the core. […] Standard curves for peak area ratio of compound to internal standard (Astd/AIstd) vs. compound concentration were used to determine sample analyte concentrations through linear regression with a weighting average of 1/X^2. […] All pharmacokinetic parameters were estimated using non-compartmental analysis with Phoenix/WINONLIN, and provided by the core along with calculated sample analyte concentrations. Data was generated from n ≥ 3 individual animals sampled per time point per compound for each method of dosing.

mTOR = mTOR (Homo sapiens, UniProt P42345); assay: Target kinase 10-point inhibition assay, mTOR; assay type: biochemical; settings: replicates
Procedure: Quantitation of kinase inhibition was carried out by Life Technologies (Madison, WI) using the SelectScreen profiling platforms Z’-LYTE^TM and Adapta^TM. Single-point broad panel kinome screening was performed at 2.5 µM LP-182 against all kinases within the Z’-LYTE^TM and Adapta^TM assays (321 kinase isoforms, holoenzymes, or mutant variants). The average percent kinase inhibition from replicate data was ranked low to high, converted to a compatible identifier format, then input into Coral Human Kinome Visualization software for presentation analysis. […] Scaling of evolutionary distance for PI kinases is only relative and is based on literature analysis[62],[63]. Average percent kinome inhibition values from replicate data are supplied in Source Data file. […]. Corrected data was normalized to vehicle treated control values, and dose response percent kinase activity was analyzed by non-linear regression for determination of IC50 values.

mTOR, sequence (P42345 1360-2549 limits assumed): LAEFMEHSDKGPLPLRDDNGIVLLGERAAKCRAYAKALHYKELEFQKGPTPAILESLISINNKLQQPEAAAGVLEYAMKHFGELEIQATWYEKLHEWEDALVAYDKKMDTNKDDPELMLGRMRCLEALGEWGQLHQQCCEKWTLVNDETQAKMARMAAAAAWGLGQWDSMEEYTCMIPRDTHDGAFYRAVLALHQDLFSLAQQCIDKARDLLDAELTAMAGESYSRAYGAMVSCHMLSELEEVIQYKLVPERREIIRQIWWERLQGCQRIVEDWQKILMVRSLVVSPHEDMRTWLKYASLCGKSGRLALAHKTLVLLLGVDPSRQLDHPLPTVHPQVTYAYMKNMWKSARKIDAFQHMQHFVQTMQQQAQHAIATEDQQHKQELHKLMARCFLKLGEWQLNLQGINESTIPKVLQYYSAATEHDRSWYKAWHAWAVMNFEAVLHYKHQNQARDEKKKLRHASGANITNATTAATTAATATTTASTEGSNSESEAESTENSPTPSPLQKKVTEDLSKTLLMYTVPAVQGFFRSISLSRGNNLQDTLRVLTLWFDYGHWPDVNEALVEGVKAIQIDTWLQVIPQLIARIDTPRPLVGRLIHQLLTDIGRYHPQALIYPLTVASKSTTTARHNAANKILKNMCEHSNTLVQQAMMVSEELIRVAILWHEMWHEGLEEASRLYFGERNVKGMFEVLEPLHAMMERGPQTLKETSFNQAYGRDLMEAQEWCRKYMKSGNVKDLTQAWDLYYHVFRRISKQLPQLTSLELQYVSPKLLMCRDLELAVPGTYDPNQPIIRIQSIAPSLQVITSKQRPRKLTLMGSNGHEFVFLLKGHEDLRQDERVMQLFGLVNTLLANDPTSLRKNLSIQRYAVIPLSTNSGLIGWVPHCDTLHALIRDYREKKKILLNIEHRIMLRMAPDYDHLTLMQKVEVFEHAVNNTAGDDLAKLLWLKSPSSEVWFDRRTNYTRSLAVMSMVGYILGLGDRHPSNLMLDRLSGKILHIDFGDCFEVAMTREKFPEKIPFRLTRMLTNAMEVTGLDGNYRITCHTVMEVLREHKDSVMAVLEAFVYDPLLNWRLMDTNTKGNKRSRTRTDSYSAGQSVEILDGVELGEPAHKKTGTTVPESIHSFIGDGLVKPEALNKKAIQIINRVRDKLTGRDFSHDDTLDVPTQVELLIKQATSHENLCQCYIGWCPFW

SMILES: O=C(NOCCOCCOCCOCCC(=O)N1CCN(c2cnc3ccc(-c4cnc(Cl)c(NS(=O)(=O)c5ccc(F)cc5)c4)cc3n2)CC1)c1ccc(F)c(F)c1Nc1ccc(I)cc1F [LP-182, N-(2-(2-(2-(3-(4-(7-(6-chloro-5-((4-fluorophenyl)sulfonamido)pyridin-3-yl)quinoxalin-2-yl)piperazin-1-yl)-3-oxopropoxy)ethoxy)ethoxy)ethoxy)-3,4-difluoro-2-((2-fluoro-4-iodophenyl)amino)benzamide]
- concentration at 7 h ([1]; female, CD-1, mouse, plasma, iv, 15 mg kg^−1, Concentration (ng/mL), mice, single i.v. LP-182 15 mg kg^−1, 7 h, analyte = label, individual animals): 29.2 ng/mL
- concentration at 24 h ([1]; female, CD-1, mouse, plasma, iv, 15 mg kg^−1, Concentration (ng/mL), mice, single i.v. LP-182 15 mg kg^−1, 24 h, analyte = label, individual animals): 9.67 ng/mL
- concentration at 0.5 h ([1]; female, CD-1, mouse, plasma, iv, 15 mg kg^−1, Concentration, Supplementary Figure 6a, Time 0.5 h, individual replicates): 1180 ng/mL
- concentration at 1 h ([1]; female, CD-1, mouse, plasma, iv, 15 mg kg^−1, Concentration, Supplementary Figure 6a, Time 1 h, individual replicates): 524 ng/mL
- concentration at 2 h ([1]; female, CD-1, mouse, plasma, iv, 15 mg kg^−1, Concentration, Supplementary Figure 6a, Time 2 h, individual replicates): 275 ng/mL
- concentration at 4 h ([1]; female, CD-1, mouse, plasma, iv, 15 mg kg^−1, Concentration, Supplementary Figure 6a, Time 4 h, individual replicates): 83.2 ng/mL
- concentration at 7 h ([1]; female, CD-1, mouse, plasma, iv, 15 mg kg^−1, Concentration, Supplementary Figure 6a, Time 7 h, individual replicates): 29.2 ng/mL
- concentration at 24 h ([1]; female, CD-1, mouse, plasma, iv, 15 mg kg^−1, Concentration, Supplementary Figure 6a, Time 24 h, individual replicates): 9.67 ng/mL
- half-life ([1]; female, CD-1, mouse, plasma, iv, 15 mg/kg): 474 min
- concentration at 0.5 h ([1]; female, CD-1, mouse, plasma, po, 400 mg kg^−1, Concentration (ng/mL), mice, single p.o. LP-182 400 mg kg^−1, 0.5 h, analyte = label, individual animals): 2530 ng/mL
- concentration at 1 h ([1]; female, CD-1, mouse, plasma, po, 400 mg kg^−1, Concentration (ng/mL), mice, single p.o. LP-182 400 mg kg^−1, 1 h, analyte = label, individual animals): 1240 ng/mL
- concentration at 0.5 h ([1]; female, CD-1, mouse, plasma, po, 400 mg kg^−1, Concentration, Supplementary Figure 6a, Time 0.5 h, individual replicates): 2530 ng/mL
- concentration at 1 h ([1]; female, CD-1, mouse, plasma, po, 400 mg kg^−1, Concentration, Supplementary Figure 6a, Time 1 h, individual replicates): 1240 ng/mL
- half-life ([1]; female, CD-1, mouse, plasma, po, 400 mg/kg): 762 min
- plasma level maintained over 24 h ([1]; mice, after oral LP-182 400 mg kg^−1, analyte = label): ~ 300 ng mL^-1
- Concentration ([1]; mice, plasma, single i.v. LP-182 15 mg kg^−1, 0.167 h, analyte = label, individual animals): 11100 ng/mL and 8270 ng/mL and 5220 ng/mL
- Concentration ([1]; mice, plasma, single i.v. LP-182 15 mg kg^−1, 0.5 h, analyte = label, individual animals): 807 ng/mL and 646 ng/mL
- Concentration ([1]; mice, plasma, single i.v. LP-182 15 mg kg^−1, 1 h, analyte = label, individual animals): 451 ng/mL and 857 ng/mL
- Concentration ([1]; mice, plasma, single i.v. LP-182 15 mg kg^−1, 2 h, analyte = label, individual animals): 275 ng/mL and 179 ng/mL
- Concentration ([1]; mice, plasma, single i.v. LP-182 15 mg kg^−1, 4 h, analyte = label, individual animals): 141 ng/mL and 75.9 ng/mL
- Concentration ([1]; mice, plasma, single i.v. LP-182 15 mg kg^−1, 7 h, analyte = label, individual animals): 51.4 ng/mL and 34.3 ng/mL
- Concentration ([1]; mice, plasma, single i.v. LP-182 15 mg kg^−1, 16 h, analyte = label, individual animals): 30.6 ng/mL and 29.3 ng/mL and 5.58 ng/mL
- Concentration ([1]; mice, plasma, single i.v. LP-182 15 mg kg^−1, 24 h, analyte = label, individual animals): 7.68 ng/mL and 8.28 ng/mL
- Concentration ([1]; mice, plasma, single p.o. LP-182 400 mg kg^−1, 0.167 h, analyte = label, individual animals): 731 ng/mL and 1660 ng/mL and 900 ng/mL
- Concentration ([1]; mice, plasma, single p.o. LP-182 400 mg kg^−1, 0.5 h, analyte = label, individual animals): 2150 ng/mL and 2630 ng/mL
- Concentration ([1]; mice, plasma, single p.o. LP-182 400 mg kg^−1, 1 h, analyte = label, individual animals): 1580 ng/mL and 1950 ng/mL
- Concentration ([1]; mice, plasma, single p.o. LP-182 400 mg kg^−1, 2 h, analyte = label, individual animals): 424 ng/mL and 145 ng/mL and 74.1 ng/mL
- Concentration ([1]; mice, plasma, single p.o. LP-182 400 mg kg^−1, 4 h, analyte = label, individual animals): 146 ng/mL and 522 ng/mL and 339 ng/mL
- Concentration ([1]; mice, plasma, single p.o. LP-182 400 mg kg^−1, 7 h, analyte = label, individual animals): 331 ng/mL and 97.6 ng/mL and 1560 ng/mL
- Concentration ([1]; mice, plasma, single p.o. LP-182 400 mg kg^−1, 16 h, analyte = label, individual animals): 79.2 ng/mL and 205 ng/mL and 265 ng/mL
- Concentration ([1]; mice, plasma, single p.o. LP-182 400 mg kg^−1, 24 h, analyte = label, individual animals): 401 ng/mL and 114 ng/mL and 295 ng/mL
- activity at 0.000495 µM (mTOR; 0.495 nM): 95%
- Kinase Activity (%) (mTOR; 0.495 nM, 0.000495 µM): 99% and 98% and 101% and 94% and 96%
- activity at 0.00152 µM (mTOR; 1.52 nM): 97%
- Kinase Activity (%) (mTOR; 1.52 nM, 0.00152 µM): 99% and 100% and 94% (2×)
- activity at 0.00457 µM (mTOR; 4.57 nM): 91%
- Kinase Activity (%) (mTOR; 4.57 nM, 0.00457 µM): 92% and 94% and 87% and 88%
- activity at 0.0412 µM (mTOR; 41.2 nM): 52%
- Kinase Activity (%) (mTOR; 41.2 nM, 0.0412 µM): 63% and 57% (2×) and 47% (2×)
- activity at 0.123 µM (mTOR; 123 nM): 29%
- Kinase Activity (%) (mTOR; 123 nM, 0.123 µM): 30% (2×) and 32% and 31%
- activity at […] (mTOR; 370 nM): 13%
- Kinase Activity (%) (mTOR; 1110 nM, 1.11 µM): 4% and 3% (2×) and 5% and 1% and 2%
- Kinase Activity (%) (mTOR; 3330 nM, 3.33 µM): 0% (4×) and -1% and -2%
- Kinase Activity (%) (mTOR; 10000 nM, 10 µM): 2% and -1% (4×) and 1%
